According to article PMC9458978, “Design, synthesis and biological evaluation of novel biphenylsulfonamide derivatives as selective AT2 receptor antagonists” (Frontiers in Chemistry, 2022):
Entries after “also recorded” stand apart in the source; their conditions may differ.

Experiments:
AT1 receptor = molecular target: T1, AT1 receptor (Rattus norvegicus, UniProt P25095); assay: Rat liver membrane AT1 receptor binding assay ([125I]-Ang II displacement); settings: displacement of [125I]-Ang II, rat liver membranes; means ± SE, triplicate; read-out: Ki (nM) AT1R
T1 construct: Rat liver membranes were prepared according to the method of Dudley et al; from tissue; host or cells: rat liver membranes
T1 sequence (P25095 whole entry): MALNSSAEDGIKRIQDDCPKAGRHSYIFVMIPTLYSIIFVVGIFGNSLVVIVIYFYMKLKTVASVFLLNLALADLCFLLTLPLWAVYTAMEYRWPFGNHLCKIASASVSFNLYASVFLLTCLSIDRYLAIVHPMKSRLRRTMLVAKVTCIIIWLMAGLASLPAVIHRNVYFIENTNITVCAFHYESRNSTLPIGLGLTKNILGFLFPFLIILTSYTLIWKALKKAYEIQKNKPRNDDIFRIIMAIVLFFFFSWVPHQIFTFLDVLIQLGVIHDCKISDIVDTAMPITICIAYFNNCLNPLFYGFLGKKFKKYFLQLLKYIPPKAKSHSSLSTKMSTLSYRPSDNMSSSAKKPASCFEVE
Protocol: The target compounds were evaluated for AT1 receptor binding affinity by displacement of [^125I]-Ang II from the AT1 receptor in rat liver membranes. The radio-iodinated AT2 receptor selective ligand [^125I]-CGP42112 was used to study AT2 receptor binding affinity in HEK-293 cells (HEK293-hAT2R) ([Dudley et al., 1990]; [Whitebread et al., 1991]). All of above methods were widely accepted and used to evaluate the binding activity of AT1 and AT2 receptors.
Rat liver membranes were prepared according to the method of Dudley et al ([Dudley et al., 1990]). After HEK-293 cells were transfected with the AT2 receptor, a lysis buffer was used to separate the cell membrane of HEK-293 cells ([Grieger et al., 2016]), using 27-G Resuspend. The lysis solution was mixed and centrifuged at 12,000 g for 10 min at 4°C. Details are shown in the Supplementary Material.
3. Radioligand binding assay steps
3.1 Rat Liver Membrane AT1 Receptor Binding Assay.
Rat liver membranes were prepared according to the method of Dudley et al[1].
Binding of [125I]-Ang II to membranes was conducted in a final volume of 0.5 mL containing 50 mM Tris-HCl (pH 7.4), 100 mM NaCl, 10 mM MgCl2, 1 mM EDTA, 0.025% bacitracin, 0.2% BSA (bovine serum albumin), liver homogenate corresponding to 5 mg of the original tissue weight, [125I]-Ang II (80000-85 000 cpm, 0.03 nM), and variable concentrations of test substance. Samples were incubated at 25 ℃ for 2 h, and binding was terminated by filtration through Whatman GF/B glass-fiber filter sheets, which had been presoaked overnight with 0.3 % polyethylamine, using a Brandel cell harvester. The filterswere washed with 3×3 mL of Tris-HCl (pH 7.4) and transferred to tubes. The radioactivity was measured in a γ-counter. The characteristics of the Ang II binding AT1receptor was determined by using six different concentrations (0.03-5 nmol/L) of the labeled [125I]-Ang II.
Nonspecific binding was determined in the presence of 1 µM Ang II.The specific binding was determined by subtracting the nonspecific binding from the total bound [125I]-Ang II.The apparent dissociation constant Ki values were calculated from IC50 values using the Cheng-Prusoff equation. […]
(§1) one-site fit.All determinations were performed in triplicate. […]

AT2 receptor [1] = assay: Neurite outgrowth assay with NG108-15 cells (AT2 receptor function assay); settings: for Function (AT2 receptor agonist / antagonist): 3-day treatment, 10 or 100 nM, with or without PD-123,319 (10 uM) or Ang II
Protocol: The ratio of cell neurite outgrowth was used to evaluate, and the details are shown in the Supplementary Material.
NG108-15 cells (China Center for Type Culture Collection CCTCC) were used to study the in vitro morphological effects. In their undifferentiated state, neuroblastoma × glioma hybrid NG108-15 cells havea rounded shape and divide actively. The cells were cultured from passage 18–25 in Dulbecco’s modified Eagle’s medium (DMEM, Gibco BRL, Thermo Fisher Technology (China) Co., Ltd, China) with 10% fetal bovine serum (FBS, Gibco), HAT supplement and 50 mg L^−1 gentamycin at 37°C in 75 cm^2 Nunclon Delta flasks in a humidified atmosphere of 95% air and 5% CO2, as previously described ([Buisson et al., 1992]). Subcultures were performed at subconfluency. Under these conditions, cells express mainly the AT2 receptor subtype ([Whitebread et al., 1991]). Cells were treated during 3 days, once a day (first treatment 24 h after plating), and micrographs were taken on the fourth day. The details of experimental grouping and administration method are shown in the Supplementary Material. […]
4. NG108-15 cell experiment steps […]
peptidic AT2 receptor agonist CGP-42112A induces neurite outgrowth. The […]
plated as described in the Experimental Section, and adequate test concentrations for […]
each compound were determined by testing a dilution series of each compound […]
ranging from 1 pM to 1 uM.
The chemicals used in the present study were obtained from the following sources: Dulbecco’s modified Eagle’s medium (DMEM), heat-inactivated fetal bovine serum (FBS), HAT supplement (hypoxanthine, aminopterin, thymidine), gentamycin from Gibco BRL (Burlington, Ontario, Canada), and Ang II from MedChemExpress

AT2 receptor [2] = molecular target: T2, AT2 receptor (Homo sapiens, UniProt P50052); assay: HEK-293 cell AT2 receptor binding assay ([125I]-CGP42112 displacement, HEK293-hAT2R)
T2 construct: expressed in transfected cells; host or cells: HEK-293
T2 sequence (P50052 1-363): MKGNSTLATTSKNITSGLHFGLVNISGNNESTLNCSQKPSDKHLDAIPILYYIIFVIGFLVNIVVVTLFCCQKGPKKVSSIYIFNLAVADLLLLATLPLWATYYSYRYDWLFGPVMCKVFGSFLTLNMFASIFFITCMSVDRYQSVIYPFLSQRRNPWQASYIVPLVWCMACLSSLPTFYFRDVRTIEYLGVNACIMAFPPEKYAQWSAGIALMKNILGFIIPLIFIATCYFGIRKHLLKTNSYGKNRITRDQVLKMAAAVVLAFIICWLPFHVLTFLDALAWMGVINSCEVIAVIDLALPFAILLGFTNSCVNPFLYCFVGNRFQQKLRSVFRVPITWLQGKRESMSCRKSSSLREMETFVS
Protocol: All of above methods were widely accepted and used to evaluate the binding activity of AT1 and AT2 receptors.
The lysis solution was mixed and centrifuged at 12,000 g for 10 min at 4°C. Details are shown in the Supplementary Material.
After HEK-293 cells were transfected with AT2 receptor, lysis buffer (150 mM NaCl, 0.1% Triton X-100, 50 mM Tris-HCl, 1 mM EDTA, protease inhibitor) was used to separate the cell membrane of HEK-293 cells[2],using 27-G Resuspend and mix the lysis solution, and centrifuge at 12,000 g for 10 minutes at 4 °C. The supernatant was collected and centrifuged for a further 60 minutes. The precipitated membrane extracts were buffered (150 mM NaCl, 10 mM MgCl2, 0.5 % SDS, 1 % Triton X-100, 50 mM Tris-Cl, 1 mM EDTA, protease inhibitor ) for resuspension. […]
mL containing 50 mM Tris-HCl (pH 7.4), 100 mM NaCl, 10 mM MgCl2, 1 mM […]
cpm, 0.03 nM), and variable concentrations of test substance. Samples were incubated at 25 ℃ for 2 h, and binding was terminated by filtration through Whatman GF/B glass-fiber filter sheets, which had been presoaked overnight with 0.3 % polyethylamine, using a Brandel cell harvester. The filterswere washed with 3×3 mL of Tris-HCl (pH 7.4) and transferred to tubes. The radioactivity was measured in a γ-counter. The characteristics of the Ang II binding AT1 receptor was determined by […]
Nonspecific binding was determined in the presence of 1 µM Ang II.The specific binding was determined by subtracting the nonspecific binding from the total bound The apparent dissociation constant Ki values were calculated from IC50 values using the Cheng-Prusoff equation. […]
as §1

AT2R = settings: Figure 5, tetrahydroisoquinoline antagonists, ref Smith et al., 2013, Rice et al., 2014, Smith and Muralidharan, 2015, 2016; cited from earlier work

In the case of `CCCCc1ccc(S(=O)(=O)NC(=O)OC(C)C)c(-c2cccc(Cn3cncn3)c2)c1` [8h, Isopropyl((3'-((1H-1,2,4-triazol-1-yl)methyl)-5-butyl-[1,1′-biphenyl]-2-yl)sulfonyl)carbamate], the Ki (AT1 receptor) is reported as 1505 ± 1.11 nM, the “Function (AT2 receptor agonist / antagonist)” value (AT2 receptor [1]) is reported as “antagonistic activity; also recorded: antagonist activity” and the “evidence of cell death” value (AT2 receptor [1]; dilution series 1 pM to 1 uM, seen only at the highest concentration) is reported as “evidence of cell death”. It also gave a Ki (AT2 receptor [2]) of 82.9 ± 1.19 nM.
For `CCCCOc1ccc(S(=O)(=O)NC(=O)OC(C)C)c(-c2cccc(Cn3cncn3)c2)c1` [8l, Isopropyl((3'-((1H-1,2,4-triazol-1-yl)methyl)-5-butoxy-[1,1′-biphenyl]-2-yl)sulfonyl)carbamate], the Ki (AT1 receptor) was 2005 ± 1.16 nM, the “Function (AT2 receptor agonist / antagonist)” value (AT2 receptor [1]) was “antagonistic activity; also recorded: AT2R antagonist; also recorded: antagonist activity” and the Ki (AT2 receptor [2]) was 56.6 ± 1.16 nM.
For `CCCCOc1ccc(S(=O)(=O)NC(=O)OCC(C)C)c(-c2cccc(Cn3cncn3)c2)c1` [8k, Isobutyl((3'-((1H-1,2,4-triazol-1-yl)methyl)-5-butoxy-[1,1′-biphenyl]-2-yl)sulfonyl)carbamate], the Ki (AT1 receptor) was 775 ± 1.08 nM, the “Function (AT2 receptor agonist / antagonist)” value (AT2 receptor [1]) was “antagonistic activity; also recorded: AT2R antagonist; also recorded: antagonist activity” and the Ki (AT2 receptor [2]) was 712.5 ± 1.17 nM.
In the case of `CCCCOc1ccc(S(=O)(=O)NC(=O)CCCC)c(-c2cccc(Cn3cncn3)c2)c1` [8i, N-((3'-((1H-1,2,4-triazol-1-yl)methyl)-5-butoxy-[1,1′-biphenyl]-2-yl)sulfonyl)pentanamide], the Ki (AT1 receptor) is reported as 1250 ± 1.12 nM, the “Function (AT2 receptor agonist / antagonist)” value (AT2 receptor [1]) is reported as “antagonistic activity; also recorded: AT2R antagonist; also recorded: antagonist activity” and the Ki (AT2 receptor [2]) is reported as 199.6 ± 1.17 nM.
In the case of `COc1ccc(Cn2cnc3c2C[C@@H](C(=O)O)N(C(=O)C(c2ccccc2)c2ccccc2)C3)cc1C` [EMA300], the Ki (AT2R) is given as 28 nM.
For `CCCCc1ccc(S(=O)(=O)NC(=O)OC(C)C)c(-c2cccc(Cn3cccn3)c2)c1` [9h, Isopropyl((3'-((1H-pyrazol-1-yl)methyl)-5-butyl-[1,1′-biphenyl]-2-yl)sulfonyl)carbamate], the Ki (AT1 receptor) was 1723 ± 1.07 nM, the “Function (AT2 receptor agonist / antagonist)” value (AT2 receptor [1]) was “antagonistic activity; also recorded: Antagonist” and the Ki (AT2 receptor [2]) was 138 ± 1.34 nM.
In the case of `CCCCOC(=O)NS(=O)(=O)c1ccc(OCCCC)cc1-c1cccc(Cn2cncn2)c1` [8j, Butyl((3'-((1H-1,2,4-triazol-1-yl)methyl)-5-butoxy-[1,1′-biphenyl]-2-yl)sulfonyl)carbamate], the Ki (AT1 receptor) is reported as 889.3 ± 1.24 nM, the “Function (AT2 receptor agonist / antagonist)” value (AT2 receptor [1]) is reported as “agonistic activity; also recorded: agonist activity; also recorded: AT2R agonist” and the Ki (AT2 receptor [2]) is reported as 620.1 ± 1.27 nM.
